Laboratory results taken from publication PMC10961359, “Targeting hexokinase 2 for oral cancer therapy: structure-based design and validation of lead compounds” (Frontiers in Pharmacology, 2024).

Experiments:
HK2 = target: T1, HK2 (Homo sapiens, UniProt P52789); experiment: HK2 enzyme inhibition assay (Abcam kit ab211114); type: biochemical
T1 construct: purchased Abcam ab211114
T1 sequence (P52789 1-917): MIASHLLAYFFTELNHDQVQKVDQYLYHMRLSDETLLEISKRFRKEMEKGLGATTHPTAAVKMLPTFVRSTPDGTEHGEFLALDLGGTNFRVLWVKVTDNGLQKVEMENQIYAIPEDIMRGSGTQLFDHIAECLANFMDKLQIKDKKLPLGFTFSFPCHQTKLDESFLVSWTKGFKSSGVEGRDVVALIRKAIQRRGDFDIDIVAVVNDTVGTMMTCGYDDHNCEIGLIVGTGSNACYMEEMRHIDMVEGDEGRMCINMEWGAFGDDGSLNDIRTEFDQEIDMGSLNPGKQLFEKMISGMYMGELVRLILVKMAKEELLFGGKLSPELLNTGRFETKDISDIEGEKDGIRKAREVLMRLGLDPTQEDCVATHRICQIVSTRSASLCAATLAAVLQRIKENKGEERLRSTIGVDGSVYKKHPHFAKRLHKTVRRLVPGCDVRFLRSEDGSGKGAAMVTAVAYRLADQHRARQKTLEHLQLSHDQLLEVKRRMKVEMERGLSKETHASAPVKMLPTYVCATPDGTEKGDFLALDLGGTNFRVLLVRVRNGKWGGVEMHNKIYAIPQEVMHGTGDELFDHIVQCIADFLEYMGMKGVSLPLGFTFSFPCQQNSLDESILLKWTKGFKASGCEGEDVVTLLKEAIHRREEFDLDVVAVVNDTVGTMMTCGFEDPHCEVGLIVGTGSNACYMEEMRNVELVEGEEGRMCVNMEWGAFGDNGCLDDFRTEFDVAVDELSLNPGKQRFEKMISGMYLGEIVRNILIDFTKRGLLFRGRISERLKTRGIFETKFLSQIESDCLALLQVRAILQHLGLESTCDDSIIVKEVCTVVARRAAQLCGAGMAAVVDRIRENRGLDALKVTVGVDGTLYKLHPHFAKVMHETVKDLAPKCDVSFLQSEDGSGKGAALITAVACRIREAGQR
Procedure: The HK2 enzyme inhibition assay was performed using an HK2 inhibitor assay kit (Abcam, ab211114) according to the manufacturer’s instructions. Initially, 50 µM compound concentration was used to perform the enzyme activity inhibition studies, after which IC50 of the top leads were determined.
(§1) The hits derived from the docking study were sourced from either commercial suppliers or pre-existing compounds within our laboratory or were synthesized anew. The FaDu and Cal27 oral cancer cells were treated with the compounds for 72 h at concentrations of 3, 10, 30, and 100 μM. A post-treatment MTT assay was done to evaluate their antiproliferative activity. Table S2 represents the anti-proliferative and enzyme inhibitory activity of the compounds obtained as hits from the structure-based drug design strategy. […] Consequently, 50 μM of all the hit compounds were evaluated for their HK2 enzyme inhibitory activity. 50 μM of compounds were incubated with HK2 protein and the rate of reaction was assessed in kinetic mode (rate of conversion of NAD to NADH). The choice of 50 μM concentration was based primarily on MTT assays and GI50 calculation. The average GI50 values of the hit compounds against less sensitive FaDu cell line was approximately 50 μM. Considering this information, we reasoned that utilizing a concentration equivalent to the average GI50 would allow us to assess the maximum inhibitory effect of the compounds on HK2 enzyme activity. […] The same compounds have been previously reported by our team to have EGFR phosphorylation inhibitory potential and were coded as H2 (compound 14) and H10 (compound 11) ([Chakraborty et al., 2022]). […] Figures 1C,D show the lead compounds H2 and H10 at the active site of HK2 enzyme interacting via H-bonds with the amino acid residues.

Cal27 oral cancer cells = experiment: MTT antiproliferative assay, Cal27; type: cell-based; conditions: Homo sapiens, CAL-27; MTT, 72 h treatment; mean ± SEM; read-out: GI50 for Cal27
Procedure: FaDu cell line was cultured in RPMI-1640 medium containing L-glutamine (300 mg/L) and sodium bicarbonate (2 g/L), while Cal27, HEK293 and HFF-1 cell lines were cultured in DMEM medium containing glucose (4.5 g/L), L-glutamine (584 mg/L) and sodium bicarbonate (3.7 g/L). For gene expression and qPCR studies, RNA isolation was performed using Trizol (Thermo). The reagents and the primer sequences employed for the qPCR assays have been described previously ([Chakraborty et al., 2022]).
as §1

Cal27 cells = experiment: Annexin V FITC / propidium iodide apoptosis assay, Cal27; type: cell-based; conditions: Cal27, 10 and 30 μM, 72 h
Procedure: FaDu and Cal27 cells were treated with the test compounds (0.5 million cells per treatment) for 72 h, and harvested for cell cycle analysis (Cat# BD340242) and apoptosis analysis (Cat# BD556547) by flow cytometry according to manufacturer’s instructions.
To determine the effect of HK2 inhibition in the progression of the cell cycle, flow cytometric analysis of compound-treated FaDu and Cal27 cells was carried out 72 h post-treatment. Cell cycle analysis is carried out to quantify the DNA content and estimate the percentages of the cell population in different cell cycle phases via propidium iodide staining. […] To determine the apoptosis-inducing activity of HK2 inhibitors, 10 and 30 μM of compounds H2 and H10 treated FaDu and Cal27 cells were stained with annexin V conjugated with FITC, followed by propidium iodide staining.

**Q.** Which results are given for `COc1ccc(CNC(=O)c2nc3ccccc3s2)cc1O` [Compound 14, N-(3-hydroxy-4methoxybenzyl)benzo[d]thiazole-2-carboxamide]?
**A.** inhibition at 50 µM (HK2; read-out: % inhibition of HK2 enzyme activity at 50 µM): 87%; IC50 (HK2; read-out: IC50 against HK2): 2.94 ± 0.2 µM; GI50 (Cal27 oral cancer cells): 21.7 µM; apoptosis-inducing activity (Cal27 cells): late apoptotic and necrotic effects
